Data published in PMC10214525, “A Turn-On Fluorescent Amino Acid Sensor Reveals Chloroquine’s Effect on Cellular Amino Acids via Inhibiting Cathepsin L” (ACS Central Science, 2023).

Legend:
Cathepsin L (CTSL) = molecular target: T1, Cathepsin L (CTSL) (Homo sapiens, UniProt P07711); assay: Z-FR-AMC fluorogenic cleavage assay, pH […]; supported by intrinsic fluorescence of CTSL-Flag and CQ-X chase; type: biochemical
T1 construct: commercial purified CTSL (BPS Biosciences kit); CTSL-Flag-Myc purified from HEK-293T for intrinsic fluorescence

NPC2 = molecular target: T2, NPC2 (Homo sapiens, UniProt P61916); assay: competition (chase) of CQ-X photo-cross-linking in cells; type: cell-based
T2 construct: endogenous, A549 cells
T2 sequence (P61916 20-151): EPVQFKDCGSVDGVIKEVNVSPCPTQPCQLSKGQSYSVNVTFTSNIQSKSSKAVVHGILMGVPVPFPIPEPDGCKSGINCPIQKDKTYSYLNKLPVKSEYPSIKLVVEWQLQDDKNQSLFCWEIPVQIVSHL

T1 sequence (P07711 114-288): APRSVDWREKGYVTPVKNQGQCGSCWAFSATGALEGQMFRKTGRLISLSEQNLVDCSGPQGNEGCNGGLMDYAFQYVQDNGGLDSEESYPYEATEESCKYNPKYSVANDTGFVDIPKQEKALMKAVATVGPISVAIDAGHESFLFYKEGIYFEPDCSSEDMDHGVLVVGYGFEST
T1 sequence (P07711 292-333): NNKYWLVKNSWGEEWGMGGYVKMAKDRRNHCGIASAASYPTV

CCN(CC)CCCC(C)Nc1ccnc2cc(Cl)ccc12 (centres unmarked) [CQ, chloroquine]
IC50 (Cathepsin L (CTSL)): 181 µM | competition (chase) of CQ-X photo-cross-linking in cells (NPC2): The results confirmed that chloroquine could bind to NPC2 and CTSL.
